Data set [1] is described as follows: in vitro. The settings on record: human.
Data set [2] concerns rgRSV224 virus. Put plainly: microbe, parasite or virus in culture. The settings on record: human respiratory syncytial virus, 72 h; rgRSV224 virus (MOI=1), HeLa cells, GFP expression three days post-virus exposure; averaged data of several repeat experiments; read-out: RSV HELA EC50. In kind it is cell-based.

With `C[C@@H]1c2ccccc2CCN1C(=O)c1cc(C2CC2)c2nc(-c3ccc(N4CC(O)C4)cc3F)cn2c1` [Compound 27, 1-(4-{8-Cyclopropyl-6-[(1R)-1-methyl-1,2,3,4-tetrahydroisoquinoline-2-carbonyl]imidazo[1,2-a]pyridin-2-yl}-3-fluorophenyl)azetidin-3-ol], the CC50 at 3 days in data set [1] amounted to 98.1 µM. For the same compound, in data set [2], the EC50 amounted to 0.119 µM.
`C[C@@H]1c2ccccc2CCN1C(=O)c1cc(C2CC2)c2nc(-c3ccc(N4CC(C(=O)NS(C)(=O)=O)C4)cc3F)cn2c1` [Compound 28, 1-(4-{8-Cyclopropyl-6-[(1R)-1-methyl-1,2,3,4-tetrahydroisoquinoline-2-carbonyl]imidazo[1,2-a]pyridin-2-yl}-3-fluorophenyl)-N-methanesulfonylazetidine-3-carboxamide] had a CC50 at 3 days in data set [1] above 100 µM. In data set [2], the 50% effective concentration (EC50) was 3.11 µM.
Compound `C[C@@H]1c2ccccc2CCN1C(=O)c1cc(C2CC2)c2nc(-c3ccc4c(c3F)C=C(C(=O)O)CO4)cn2c1` [Compound 29, (R)-6-(8-cyclopropyl-6-(1-methyl-1,2,3,4-tetrahydroisoquinoline-2-carbonyl)imidazo[1,2-a]pyridin-2-yl)-5-fluoro-2H-chromene-3-carboxylic Acid] came in with a CC50 at 3 days in data set [1] of 49.5 µM. In addition, the EC50 in data set [2] turned out to be 0.146 µM.
The like results for `C[C@@H]1c2ccccc2CCN1C(=O)c1cc(C2CC2)c2nc(-c3ccc(NC(=O)N4CC(O)C4)cc3F)cn2c1` [Compound 30, (R)-N-(4-(8-cyclopropyl-6-(1-methyl-1,2,3,4-tetrahydroisoquinoline-2-carbonyl)imidazo[1,2-a]pyridin-2-yl)-3-fluorophenyl)-3-hydroxyazetidine-1-carboxamide] were, in that order, 43.4 µM and 0.089 µM.
For `C[C@@H]1c2ccccc2CCN1C(=O)c1cc(C2CC2)c2nc(-c3ccc(/C=C/C(=O)O)cc3F)cn2c1` [Compound 31, (R),(E)-3-(4-(8-cyclopropyl-6-(1-methyl-1,2,3,4-tetrahydroisoquinoline-2-carbonyl)imidazo[1,2-a]pyridin-2-yl)-3-fluorophenyl)acrylic acid] the same measures were 49.9 µM and 0.158 µM.
The compound `C[C@@H]1c2ccccc2CCN1C(=O)c1cc(C2CC2)c2nc(-c3ccc([C@H]4C[C@@H]4C(=O)O)cc3F)cn2n1` [Compound 32, (1S,2 S)-2-(4-{8-Cyclopropyl-6-[(1R)-1-methyl-1,2,3,4-tetrahydroisoquinoline-2-carbonyl]imidazo[1,2-b]pyridazin-2-yl}-3-fluorophenyl)cyclopropane-1-carboxylic Acid] displayed a CC50 at 3 days in data set [1] of 51.5 µM. In addition, the 50% effective concentration (EC50) in data set [2] amounted to 0.01 µM.
As for `C[C@@H]1CCCCCN1C(=O)c1cc(C2CC2)c2nc(-c3ccc([C@H]4C[C@@H]4C(=O)O)cc3F)cn2n1` [Compound 33, (1S,2S)-2-(4-{8-Cyclopropyl-6-[(2R)-2-methylazepane-1-carbonyl]imidazo[1,2-b]pyridazin-2-yl}-3-fluorophenyl)cyclopropane-1-carboxylic Acid], the CC50 at 3 days in data set [1] was 50.5 µM. For the same compound, the EC50 in data set [2] is 0.067 µM.
For the compound `CCc1cc(C(=O)N2CCc3ccccc3[C@H]2C)nn2cc(-c3ccc(N4C[C@H](O)[C@@H](O)C4)cc3F)nc12` [Compound 34, (2-(4-((3 S,4 S)-3,4-dihydroxypyrrolidin-1-yl)-2-fluorophenyl)-8-ethylimidazo[1,2-b]pyridazin-6-yl)((R)-1-methyl-3,4-dihydroisoquinolin-2(1H)-yl)methanone], the CC50 at 3 days in data set [1] came out at 24.5 µM. In data set [2], the EC50 was determined as 0.012 µM.
`CCc1cc(C(=O)N2CCc3ccccc3[C@H]2C)nn2cc(-c3ccc(N4CC(O)C4)cc3F)nc12` [Compound 35, (R)-(8-ethyl-2-(2-fluoro-4-(3-hydroxyazetidin-1-yl)phenyl)imidazo[1,2-b]pyridazin-6-yl)(1-methyl-3,4-dihydroisoquinolin-2(1H)-yl)methanone]: the CC50 at 3 days in data set [1] amounted to 16.3 µM. For the same compound, the EC50 in data set [2] turned out to be 0.021 µM.
Regarding `CCc1cc(C(=O)N2CCc3ccccc3[C@H]2C)nn2cc(-c3ccc(/C=C/C(=O)O)cc3F)nc12` [Compound 36, (R,E)-3-(4-(8-ethyl-6-(1-methyl-1,2,3,4-tetrahydroisoquinoline-2-carbonyl)imidazo[1,2-b]pyridazin-2-yl)-3-fluorophenyl)acrylic Acid], the CC50 at 3 days in data set [1] came to 17.2 µM. Further, the EC50 in data set [2] is 0.039 µM.
For the compound `CCc1cc(C(=O)N(CC)C(C)C(C)C)nn2cc(-c3ccc(NC(=O)N4CC[C@@H](O)C4)cc3F)nc12` (stereo partly drawn) [Compound 42, N,8-diethyl-2-(2-fluoro-4-((R)-3-hydroxypyrrolidine-1-carboxamido)phenyl)-N-(3-methylbutan-2-yl)imidazo[1,2-b]pyridazine-6-carboxamide], in data set [1], the CC50 at 3 days worked out at 46.8 µM. Further, in data set [2], the EC50 turned out to be 5.55 µM.
As to `C[C@@H]1c2ccccc2CCN1C(=O)c1cc(-c2cccc(F)c2)c2nc(-c3ccc(NC(=O)N4CC[C@@H](O)C4)cc3F)cn2n1` [Compound 43, (R)-N-(3-fluoro-4-(8-(3-fluorophenyl)-6-((R)-1-methyl-1,2,3,4-tetrahydroisoquinoline-2-carbonyl)imidazo[1,2-b]pyridazin-2-yl)phenyl)-3-hydroxypyrrolidine-1-carboxamide], in data set [1], the CC50 at 3 days is above 100 µM. The EC50 in data set [2] turned out to be 0.022 µM.
Take `CCc1cc(C(=O)N2CCc3ccccc3[C@H]2C)nn2cc(-c3ccc4c(c3F)C=C(C(N)=O)CO4)nc12` [Compound 45, (R)-6-(8-ethyl-6-(1-methyl-1,2,3,4-tetrahydroisoquinoline-2-carbonyl)imidazo[1,2-b]pyridazin-2-yl)-5-fluoro-2H-chromene-3-carboxamide]: in data set [1], the CC50 at 3 days is above 100 µM. In addition, in data set [2], the EC50 stood at 0.105 µM.
As to `CCc1cc(C(=O)N2CCc3ccccc3[C@H]2C)nn2cc(-c3ccc4c(c3F)OCC(C(N)=O)=C4)nc12` [Compound 46, (R)-7-(8-ethyl-6-(1-methyl-1,2,3,4-tetrahydroisoquinoline-2-carbonyl)imidazo[1,2-b]pyridazin-2-yl)-8-fluoro-2H-chromene-3-carboxamide], in data set [1], the CC50 at 3 days was above 100 µM. In addition, the EC50 in data set [2] worked out at 0.054 µM.
For the compound `C[C@@H]1c2ccccc2CCN1C(=O)c1cn2cc(-c3ccc(NC(=O)N4CC[C@@H](O)C4)cc3F)nc2c(C2CC2)n1` [Compound 47, (R)-N-(4-(8-cyclopropyl-6-((R)-1-methyl-1,2,3,4-tetrahydroisoquinoline-2-carbonyl)imidazo[1,2-a]pyrazin-2-yl)-3-fluorophenyl)-3-hydroxypyrrolidine-1-carboxamide], the CC50 at 3 days in data set [1] is above 100 µM. In data set [2], the concentration giving a half-maximal response (EC50) is 2.77 µM.
For `C[C@@H]1c2ccccc2CCN1C(=O)c1cn2cc(-c3ccc(N4C[C@H](O)[C@@H](O)C4)cc3F)nc2c(C2CC2)n1` [Compound 48, (8-cyclopropyl-2-(4-((3 S,4 S)-3,4-dihydroxypyrrolidin-1-yl)-2-fluorophenyl)imidazo[1,2-a]pyrazin-6-yl)((R)-1-methyl-3,4-dihydroisoquinolin-2(1H)-yl)methanone] the same measures were 58.8 µM and 3.77 µM.
`C[C@@H]1c2ccccc2CCN1C(=O)c1cc(C2CC2)c2cc(-c3ccc(NC(=O)N4CC[C@@H](O)C4)cc3F)cn2n1` [Compound 49, (R)-N-(4-(4-cyclopropyl-2-((R)-1-methyl-1,2,3,4-tetrahydroisoquinoline-2-carbonyl)pyrrolo[1,2-b]pyridazin-6-yl)-3-fluorophenyl)-3-hydroxypyrrolidine-1-carboxamide] showed a CC50 at 3 days in data set [1] of 45.5 µM. In addition, the EC50 in data set [2] worked out at 0.048 µM.
The compound `C[C@@H]1c2ccccc2CCN1C(=O)c1cc(C2CC2)c2nc(-c3ccc(N4C[C@H](O)[C@@H](O)C4)cc3F)cn2n1` [Compound 51, (8-cyclopropyl-2-(4-((3 S,4 S)-3,4-dihydroxypyrrolidin-1-yl)-2-fluorophenyl)imidazo[1,2-b]pyridazin-6-yl)((R)-1-methyl-3,4-dihydroisoquinolin-2(1H)-yl)methanone] had a CC50 at 3 days in data set [1] of 38 µM. For the same compound, in data set [2], the concentration for a half-maximal effect (EC50) is 0.013 µM.

Broadly, the EC50 is the concentration at which the effect is half-maximal.

The values above are taken from patent US20220033396A1, “FURTHER HETEROAROMATIC COMPOUNDS HAVING ACTIVITY AGAINST RSV” (priority 2018, published 2022).
